Assay results: PMC9718554, “Discovery of a fragment hit compound targeting D-Ala:D-Ala ligase of bacterial peptidoglycan biosynthesis” (Journal of Enzyme Inhibition and Medicinal Chemistry, 2022)
Like-named read-outs stand apart in the source and are kept apart here.

What was measured:
[1] = biological target: T1, E. coli DdlB enzyme (D-alanine:D-alanine ligase) (Escherichia coli, UniProt P07862); test: biochemical; settings: read-out: DdlB RA; for remaining activity at 2100 µM: tested concentration 2.1 mM; for remaining activity at 1900 µM: tested concentration 1.9 mM; for remaining activity at 2000 µM: tested concentration 2.0 mM; for remaining activity at 1700 µM: tested concentration 1.7 mM; for remaining activity at 2200 µM: tested concentration 2.2 mM; for remaining activity at 1800 µM: tested concentration 1.8 mM; for remaining activity at 2400 µM: tested concentration 2.4 mM
T1 construct: made in house; host or cells: E. coli

[2] = Solubility at tested concentrations (fragment library screening); format: physicochemical
Excerpt: Supplement IENZ_A_2149745_SM2502.zip/DDlB_CDR05_SI_20221103.xlsx, sheet "Fragment library screening" | column: Solubility at tested concentrations

[3] = residual activity of DdlB, fragment library screening, tested concentration 2.5 mM

Compound	remaining activity at 2500 µM [1, 3] [%]	other results
Oc1cccc2ccc(Nc3ccccn3)nc12 [Compound 0422-0008]		remaining activity at 2100 µM ([1]; residual activity): 31%; Solubility at tested concentrations ([2]; tested concentration 2.1 mM): not soluble
Oc1ccccc1/N=C/c1ccc2cccc(O)c2n1 [Compound 0422-0036]		remaining activity at 1900 µM ([1]; residual activity): 79%; Solubility at tested concentrations ([2]; tested concentration 1.9 mM): not soluble
Oc1c(Cl)cc(Cl)c2ccc(Cl)nc12 [Compound 0422-0102]		remaining activity at 2000 µM ([1]; residual activity): 99%; Solubility at tested concentrations ([2]; tested concentration 2.0 mM): not soluble
CCc1cccc2c(=O)c(C(=O)O)c[nH]c12 [Compound 2595-1123]		remaining activity at 2300 µM ([1]; residual activity, tested concentration 2.3 mM): 47%; Solubility at tested concentrations ([2]; tested concentration 2.3 mM): not soluble
Oc1nc(-c2ccc(Cl)cc2)c2ccccc2n1 [Compound 3740-0004]		remaining activity at 1900 µM ([1]; residual activity): 83%; Solubility at tested concentrations ([2]; tested concentration 1.9 mM): not soluble
Cc1ccc(-c2nc(O)nc3ccccc23)cc1 [Compound 3740-0006]		remaining activity at 2100 µM ([1]; residual activity): 83%; Solubility at tested concentrations ([2]; tested concentration 2.1 mM): not soluble
O=C(N/N=C/c1ccc2cccc(O)c2n1)c1ccccc1 [Compound 4539-0001]		remaining activity at 1700 µM ([1]; residual activity): 49%; Solubility at tested concentrations ([2]; tested concentration 1.7 mM): not soluble
Oc1cccc2ccc(/C=C/c3ccc4c(c3)OCO4)nc12 [Compound 4896-3346]		remaining activity at 1700 µM ([1]; residual activity): 139%; Solubility at tested concentrations ([2]; tested concentration 1.7 mM): not soluble
Oc1cccc(/C=C/c2ccc3cccc(O)c3n2)c1 [Compound 5617-0440]		remaining activity at 1900 µM ([1]; residual activity): 55%; Solubility at tested concentrations ([2]; tested concentration 1.9 mM): not soluble
O=C(Cc1ccc(Cl)cc1)Nc1nnc[nH]1 [Compound 7881-1517]		remaining activity at 2100 µM ([1]; residual activity): 79%; Solubility at tested concentrations ([2]; tested concentration 2.1 mM): not soluble
O=C(Cc1ccccc1[N+](=O)[O-])Nc1nnc[nH]1 [Compound 7882-1936]		remaining activity at 2000 µM ([1]; residual activity): 118%; Solubility at tested concentrations ([2]; tested concentration 2.0 mM): not soluble
N#CCc1ccc(C(F)(F)F)cc1 [FLD116]	94	
Clc1cc(Cl)ncn1 [FLD117]	97	
Nc1ccc(Br)cc1N [FLD118]	90	
Cc1cc(C)nc(NC#N)n1 [FLD119]	100	
COc1cc(N)ccn1 [FLD120]	97	
OCc1ccc(Br)cc1 [FLD122]	96	
N#Cc1cncc(Br)c1 [FLD123]	97	
N#Cc1ccc(N2CCCNCC2)nc1 [FLD124]	62	
Nc1ncccc1O [FLD125]	97	
Nc1nnc(C2CC2)s1 [FLD126]	80	
O=C1N[C@@H](c2ccccc2)CO1 [FLD127]	99	

Compound	remaining activity at 2500 µM [1, 3] [%]	other results
CSc1nc(N)n[nH]1 [FLD128]	97	
CC(=O)Nc1ccccc1C(=O)O [FLD129]	98	
Cc1cc(C)[nH]n1 [FLD130]	100	
Nc1cccc(CC(=O)O)c1 [FLD131]	97	
Nc1c(Br)cc(Br)cc1C(=O)O [FLD132]	100	
Nc1ncccn1 [FLD133]	102	
O=C(O)c1cccnc1F [FLD134]	98	
COc1c(C)[nH]ccc1=O [FLD135]	96	
N#Cc1ccsc1N [FLD136]	100	
N#Cc1c(N)cccc1F [FLD137]	98	
Nn1cnnc1 [FLD138]	96	
CC(=O)c1ccc[nH]1 [FLD139]	95	
CNc1nnc(C(F)(F)F)s1 [FLD140]	94	
O=C(O)CCc1cccnc1 [FLD141]	95	
O=[N+]([O-])c1ccc(Cl)nc1 [FLD142]	92	
COC(=O)c1cscc1N [FLD143]	92	
Nc1ncnc2[nH]ccc12 [FLD144]	94	
Nc1ccc(Br)cn1 [FLD145]	92	
O=C(O)Cc1cccs1 [FLD146]	95	
Nc1ccc2nsnc2c1 [FLD147]	100	
O=C(O)Cc1ccc(F)c(C(F)(F)F)c1 [FLD148]	100	
N#Cc1ccc(CCO)cc1 [FLD149]	100	

Compound	remaining activity at 2500 µM [1, 3] [%]	other results
Cc1nnc(N)s1 [FLD150]	95	
O=C(O)c1ccncc1F [FLD151]	98	
N#Cc1ccc(CN)cc1 [FLD152]		remaining activity at 2500 µM [1]: 97%
Cc1cc(N)[nH]n1 [FLD153]	98	
Clc1ncnc2[nH]ccc12 [FLD154]	95	
O=C1Cc2cc([N+](=O)[O-])ccc2N1 [FLD155]	99	
O=C(O)Cc1c(Cl)cccc1Cl [FLD156]	100	
NCc1nc2ccccc2[nH]1 [FLD157]	105	
Fc1cc(Br)ccc1CN1CCCNCC1 [FLD158]	63	
COc1ccc(Br)cc1OC [FLD159]	98	
OCCc1ccc(Cl)cc1 [FLD160]	92	
CCc1cccc(N)n1 [FLD162]	100	
N#Cc1ccc(F)c(F)c1 [FLD163]	95	
CCOC(=O)Cc1ccccn1 [FLD164]	97	
Cc1ccc(O)c(C)c1 [FLD165]	91	
c1ccc2c(c1)CCNC2 [FLD166]	77	
Cc1cc(C)nc(C)c1 [FLD167]	95	
CC(O)c1ccccc1 (stereo not shown) [FLD168]	98	
Brc1ccccn1 [FLD169]	100	
NCCc1ccc(Br)cc1 [FLD170]	93	
Cc1nc2ccccc2nc1O [FLD171]	95	
Oc1c(F)c(F)c(F)c(F)c1F [FLD172]	92	

Compound	remaining activity at 2500 µM [1, 3] [%]	other results
Oc1cccc(C(F)(F)F)c1 [FLD173]	91	
NCc1ccccc1Cl [FLD174]	100	
NCCc1cccc(F)c1 [FLD175]	94	
CC(C)c1cccc(O)c1 [FLD176]	95	
OCCc1ccccc1C(F)(F)F [FLD177]	100	
CCOC(=O)c1cccnc1C [FLD178]	99	
CNc1ccccc1N [FLD179]	84	
N#Cc1ccccn1 [FLD180]	98	
CCOC(=O)C(C#N)c1ccccc1 (stereo not shown) [FLD181]	89	
C#Cc1cccc(OC)c1 [FLD182]	91	
N#CCc1ccsc1 [FLD183]	100	
Clc1nccs1 [FLD184]	98	
COc1ccncc1 [FLD185]	99	
CC1=NCCC1 [FLD186]	71	
CC1=NCCS1 [FLD187]	100	
CC1=NC(C)(C)CO1 [FLD188]	91	
CCOC(=O)N1CCC(N)CC1 [FLD189]	98	
CC(=O)N1CCC(=O)CC1 [FLD190]	100	
CCOC(=O)N1CCNCC1 [FLD191]	100	
CCNCc1ccncc1 [FLD193]	91	
Cc1ncc(CO)c(CO)c1O [FLD194]	99	
Cc1cc(C)n(CO)n1 [FLD195]	97	

Compound	remaining activity at 2500 µM [1, 3] [%]	other results
N#Cc1cccnc1N [FLD196]	99	
OCc1ccncc1 [FLD197]	100	
Cn1c(C(=O)O)cc2ccccc21 [FLD198]	79	
Nc1cccc(F)n1 [FLD199]	91	
OCc1cccs1 [FLD200]	95	
Cc1ncc(CO)c(C2CCCN(C(=O)C(C)C)C2)n1 (stereo not shown) [SA04-1071]		remaining activity at 2200 µM ([1]; residual activity): 95%
CCS(=O)(=O)N1CC2(CC(N3CCCC3)CO2)C1 (stereo not shown) [SA46-1771]		remaining activity at 1800 µM ([1]; residual activity): 90%
C1CNCC(CCc2noc(C3CCOCC3)n2)C1 (stereo not shown) [SA66-1056]		remaining activity at 1800 µM ([1]; residual activity): 94%
CC(=O)N1CCC(CCc2noc(C)n2)C1 (stereo not shown) [SA67-1016]		remaining activity at 2700 µM ([1]; tested concentration 2.7 mM): 93%
CC(=O)N1CC(=O)N(CCc2ccccc2)CC(O)C1 (stereo not shown) [SA85-1024]		remaining activity at 2200 µM ([1]; residual activity): 95%
CC(C)CN1CC(O)CN(C(=O)C2CCC2)CC1=O (stereo not shown) [SA85-1056]		remaining activity at 2200 µM ([1]; residual activity): 97%
O=C(NCc1ccccc1)C1(F)CCNC1 (stereo not shown) [SA94-0001]		remaining activity at 1900 µM [1]: 97%
Cc1n[nH]c([C@@H]2CC(F)(F)CN2C2CCCCCC2)n1 [SB35-1022]		remaining activity at 1900 µM ([1]; residual activity): 97%
CC(C)CCN1C[C@@H]2CN(C)C(=O)[C@H](C)N2C1=O [SB41-0167]		remaining activity at 2400 µM [1]: 85%
CC(=O)N1CC(c2nc(C)no2)C2(CNC2)C1 (stereo not shown) [SB57-1191]		remaining activity at 2200 µM [1]: 69%
O=C1C[C@H]2CN(S(=O)(=O)c3ccccc3)C[C@H]2CN1 [SB76-0562]		remaining activity at 2100 µM ([1]; residual activity): 86%
Cc1nc(CCOC2CCCNC2)no1 (stereo not shown) [SC04-0106]		remaining activity at 2400 µM [1]: 95%
O=C1Cn2nnc(CNC(=O)NC3CCCC3)c2CN1 [SC45-0107]		remaining activity at 2200 µM ([1]; residual activity): 93%
O=C(C1CC1)N1CC(c2n[nH]c(C3CC3)n2)C2(CCC2)C1 (stereo not shown) [SC70-0192]		remaining activity at 1700 µM ([1]; residual activity): 95%
COCCn1nc(-c2cocn2)c2c1CCN(C(C)C)C2 [SD01-0107]		remaining activity at 1700 µM ([1]; residual activity): 92%
Cn1nc(CCC(=O)NC2CCCC2)c2c1CCOC2 [SD48-0064]		remaining activity at 2200 µM ([1]; residual activity): 102%
Cn1nc(CCC(=O)N2CCNC(=O)C2)c2c1CCOC2 [SD48-0069]		remaining activity at 2100 µM ([1]; residual activity): 99%
